According to patent US20240050428A1 (Cullgen (Shanghai), Inc., priority 2020, published 2024):
Read-outs that look alike come from different tables or passages of the source.

Key:
MOLM-13 cells = assay: Cell viability assay (CellTiter-Glo) in MOLM-13 cells, alone or with gilteritinib; assay type: cell-based; conditions: Homo sapiens, MOLM-13, 72 h, MOLM-13 cells, CellTiter-Glo
MV4;11 cells = assay: Cell viability assay (CellTiter-Glo) in MV4;11 cells, alone or with gilteritinib; assay type: cell-based; conditions: Homo sapiens, MV4-11, 72 h, MV4;11 cells, CellTiter-Glo, read-out: MV4
[1] = compound alone (without gilteritinib), three days, read-out: MOLM-13 IC50
[2] = compound with gilteritinib 20 nM, three days, read-out: MOLM-13 IC50 gilteritinib
[3] = compound alone (without gilteritinib), three days, 11 IC50
[4] = compound with gilteritinib 10 nM, three days, 11 IC50 gilteritinib
[5] = with gilteritinib 20 nM, three days, read-out: MOLM-13 IC50 gilteritinib
[6] = with gilteritinib 10 nM, three days, 11 IC50 gilteritinib

IC50 (MOLM-13 cells; [1]) [nM] | IC50 (MOLM-13 cells; [2]) [nM] | IC50 (MV4;11 cells; [3]) [nM] | IC50 (MV4;11 cells; [4]) [nM] | IC50 (MOLM-13 cells; [5]) [nM] | IC50 (MV4;11 cells; [6]) [nM] | IC50 (MOLM-13 cells; with 20 nM gilteritinib, 3 days, read-out: MOLM-13 IC50 gilteritinib) [nM] | IC50 (MOLM-13 cells; without gilteritinib, 3 days, read-out: MOLM-13 IC50) [nM] | IC50 (MV4;11 cells; with 10 nM gilteritinib, 3 days, 11 IC50 gilteritinib) [nM] | IC50 (MV4;11 cells; without gilteritinib, 3 days, 11 IC50) [nM] | Structure (SMILES)
> 1000 | 100 to 1000 | 100 to 1000 | 100 to 1000 | – | – | – | – | – | – | O=C1CCC(N2C(=O)c3ccc(NC[C@H]4C[C@H](n5cc(-c6cnccn6)c(C6CC6)n5)C4)cc3C2=O)C(=O)N1 (stereo partly drawn) [GS-596, 5-(((trans-3-(3-Cyclopropyl-4-(pyrazin-2-yl)-1H-pyrazol-1-yl)cyclobutyl)methyl)amino)-2-(2,6-dioxopiperidin-3-yl)isoindoline-1,3-dione]
> 1000 | – | > 1000 | – | 10 to 100 | > 1000 | – | – | – | – | O=C1CCC(N2Cc3cc(NCc4cccc(N5CCC(n6cc(-c7cnc8ccccc8n7)cn6)CC5)c4)ccc3C2=O)C(=O)N1 (centres unmarked) [GS-162, 3-(1-Oxo-5-((3-(4-(4-(quinoxalin-2-yl)-1H-pyrazol-1-yl)piperidin-1-yl)benzyl)amino)isoindolin-2-yl)piperidine-2,6-dione]
10 to 100 | < 10 | 10 to 100 | < 10 | – | – | – | – | – | – | Cc1nn([C@H]2C[C@@H](CCCNc3ccc4c(c3)C(=O)N(C3CCC(=O)NC3=O)C4=O)C2)cc1-c1cnc2cc(N3CCN(C)CC3)ccc2n1 (stereo partly drawn) [GS-428, 2-(2,6-dioxopiperidin-3-yl)-5-((3-(cis-3-(3-methyl-4-(6-(4-methylpiperazin-1-yl)quinoxalin-2-yl)-1H-pyrazol-1-yl)cyclobutyl)propyl)amino)isoindoline-1,3-dione]
10 to 100 | – | < 10 | – | < 10 | < 10 | – | – | – | – | O=C1CCC(N2Cc3c(Nc4ccnc(Nc5cccc(N6CCC(c7ccccn7)CC6)c5)n4)cccc3C2=O)C(=O)N1 (centres unmarked) [GS-077, 3-(1-Oxo-4-((2-((3-(4-(pyridin-2-yl)piperidin-1-yl)phenyl)amino)pyrimidin-4-yl)amino)isoindolin-2-yl)piperidine-2,6-dione]
> 1000 | > 1000 | > 1000 | > 1000 | – | – | – | – | – | – | O=C1CCC(N2Cc3cc(OCCC(=O)N4CCC(n5cc(-c6cnc7ccccc7n6)cn5)CC4)ccc3C2=O)C(=O)N1 (centres unmarked) [GS-485, 3-(1-oxo-5-(3-oxo-3-(4-(4-(quinoxalin-2-yl)-1H-pyrazol-1-yl)piperidin-1-yl)propoxy)isoindolin-2-yl)piperidine-2,6-dione]
100 to 1000 | 10 to 100 | 10 to 100 | 10 to 100 | – | – | – | – | – | – | O=C1CCC(N2C(=O)c3ccc(NC[C@H]4C[C@H](n5cc(-c6cccc(OC7CC7)n6)c(C6CC6)n5)C4)cc3C2=O)C(=O)N1 (stereo partly drawn) [GS-471, 5-(((trans-3-(4-(6-cyclopropoxypyridin-2-yl)-3-cyclopropyl-1H-pyrazol-1-yl)cyclobutyl)methyl)amino)-2-(2,6-dioxopiperidin-3-yl)isoindoline-1,3-dione]
10 to 100 | < 10 | 10 to 100 | < 10 | – | – | – | – | – | – | CC(C)n1ccc2cnc(-c3cn([C@H]4C[C@H](CNc5ccc6c(c5)C(=O)N(C5CCC(=O)NC5=O)C6=O)C4)nc3C3CC3)cc21 (stereo partly drawn) [GS-622, 5-(((trans-3-(3-Cyclopropyl-4-(1-isopropyl-1H-pyrrolo[3,2-c]pyridin-6-yl)-1H-pyrazol-1-yl)cyclobutyl)methyl)amino)-2-(2,6-dioxopiperidin-3-yl)isoindoline-1,3-dione]
< 10 | – | < 10 | – | < 10 | < 10 | – | – | – | – | O=C1CCC(N2C(=O)c3ccc(NCCCc4cccc(N5CCC(n6cc(-c7cnc8ccccc8n7)cn6)CC5)c4)cc3C2=O)C(=O)N1 (centres unmarked) [GS-368, 2-(2,6-Dioxopiperidin-3-yl)-5-((3-(3-(4-(4-(quinoxalin-2-yl)-1H-pyrazol-1-yl)piperidin-1-yl)phenyl)propyl)amino)isoindoline-1,3-dione]
10 to 100 | – | < 10 | – | < 10 | < 10 | – | – | – | – | O=C1CCC(N2C(=O)c3ccc(NC[C@H]4C[C@H](n5cc(-c6cccc(N7CCC7)n6)c(C6CC6)n5)C4)cc3C2=O)C(=O)N1 (stereo partly drawn) [GS-257, 5-(((trans-3-(4-(6-(Azetidin-1-yl)pyridin-2-yl)-3-cyclopropyl-1H-pyrazol-1-yl)cyclobutyl)methyl)amino)-2-(2,6-dioxopiperidin-3-yl)isoindoline-1,3-dione]
10 to 100 | – | 10 to 100 | – | 10 to 100 | 10 to 100 | – | – | – | – | O=C1CCC(N2C(=O)c3ccc(NCCC[C@H]4C[C@H](n5cc(-c6cnc7ccc(C(F)(F)F)cc7n6)cn5)C4)cc3C2=O)C(=O)N1 (stereo partly drawn) [GS-212, 2-(2,6-Dioxopiperidin-3-yl)-5-((3-(trans-3-(4-(7-(trifluoromethyl)quinoxalin-2-yl)-1H-pyrazol-1-yl)cyclobutyl)propyl)amino)isoindoline-1,3-dione]
> 1000 | 10 to 100 | > 1000 | 100 to 1000 | – | – | – | – | – | – | Cc1cn(CCCCCCNc2ccc3c(c2)C(=O)N(C2CCC(=O)NC2=O)C3=O)nc1-c1cnc2ccccc2n1 (centres unmarked) [GS-546, 2-(2,6-Dioxopiperidin-3-yl)-5-((6-(4-methyl-3-(quinoxalin-2-yl)-TH-pyrazol-1-yl)hexyl)amino)isoindoline-1,3-dione]
> 1000 | 10 to 100 | > 1000 | 100 to 1000 | – | – | – | – | – | – | O=C1CCC(N2C(=O)c3ccc(NCCC4CC(n5cc(-c6cnc7ccccc7n6)cn5)C4)cc3C2=O)C(=O)N1 (centres unmarked) [GS-561, 2-(2,6-Dioxopiperidin-3-yl)-5-((2-(3-(4-(quinoxalin-2-yl)-1H-pyrazol-1-yl)cyclobutyl)ethyl)amino)isoindoline-1,3-dione]
> 1000 | 100 to 1000 | 100 to 1000 | > 1000 | – | – | – | – | – | – | CN1CCC(c2cnn([C@H]3C[C@H](CCCNc4ccc5c(c4)C(=O)N(C4CCC(=O)NC4=O)C5=O)C3)c2)CC1 (stereo partly drawn) [GS-435, 2-(2,6-dioxopiperidin-3-yl)-5-((3-(trans-3-(4-(1-methylpiperidin-4-yl)-1H-pyrazol-1-yl)cyclobutyl)propyl)amino)isoindoline-1,3-dione]
> 1000 | – | 100 to 1000 | – | 100 to 1000 | 100 to 1000 | – | – | – | – | O=C1CCC(N2Cc3ccc(CCCCCC(=O)N4CCC(c5ccccn5)CC4)cc3C2=O)C(=O)N1 (centres unmarked) [GS-104, 3-(1-Oxo-6-(6-oxo-6-(4-(pyridin-2-yl)piperidin-1-yl)hexyl)isoindolin-2-yl)piperidine-2,6-dione]
> 1000 | – | 100 to 1000 | – | > 1000 | > 1000 | – | – | – | – | O=C1CCC(N2C(=O)c3ccc(NC[C@H]4C[C@H](n5cc(-c6cccc(N7CCOCC7)n6)cn5)C4)cc3C2=O)C(=O)N1 (stereo partly drawn) [GS-216, 2-(2,6-Dioxopiperidin-3-yl)-5-(((trans-3-(4-(6-morpholinopyridin-2-yl)-1H-pyrazol-1-yl)cyclobutyl)methyl)amino)isoindoline-1,3-dione]
< 10 | – | < 10 | – | < 10 | < 10 | – | – | – | – | O=C1CCC(N2C(=O)c3ccc(NCCC[C@H]4C[C@@H](n5cc(-c6cnc7ccc(N8CCOCC8)cc7n6)c(C6CC6)n5)C4)cc3C2=O)C(=O)N1 (stereo partly drawn) [GS-227, 5-((3-(cis-3-(3-Cyclopropyl-4-(7-morpholinoquinoxalin-2-yl)-1H-pyrazol-1-yl)cyclobutyl)propyl)amino)-2-(2,6-dioxopiperidin-3-yl)isoindoline-1,3-dione]
100 to 1000 | 10 to 100 | 10 to 100 | < 10 | – | – | – | – | – | – | Cc1cccnc1-c1cnn([C@H]2C[C@H](CCCNc3ccc4c(c3)C(=O)N(C3CCC(=O)NC3=O)C4=O)C2)c1 (stereo partly drawn) [GS-602, 2-(2,6-Dioxopiperidin-3-yl)-5-((3-(trans-3-(4-(3-methylpyridin-2-yl)-1H-pyrazol-1-yl)cyclobutyl)propyl)amino)isoindoline-1,3-dione]
– | – | – | – | – | – | 0.2 | 2.1 | 0.5 | 1.3 | O=C1CCC(N2Cc3cc(CNC(=O)C(F)(F)c4cccc(N5CCC(n6cc(-c7cnc8cccc(Br)c8n7)cn6)CC5)c4)ccc3C2=O)C(=O)N1 (centres unmarked) [GS-004, 2-(3-(4-(4-(8-bromoquinoxalin-2-yl)-1H-pyrazol-1-yl)piperidin-1-yl)phenyl)-N-((2-(2,6-dioxopiperidin-3-yl)-1-oxoisoindolin-5-yl)methyl)-2,2-difluoroacetamide]
10 to 100 | < 10 | < 10 | < 10 | – | – | – | – | – | – | O=C1CCC(N2C(=O)c3ccc(NCCC[C@H]4C[C@H](n5cc(-c6cnc7c(C8CCNCC8)cccc7n6)cn5)C4)cc3C2=O)C(=O)N1 (stereo partly drawn) [GS-431, 2-(2,6-dioxopiperidin-3-yl)-5-((3-(trans-3-(4-(5-(piperidin-4-yl)quinoxalin-2-yl)-1H-pyrazol-1-yl)cyclobutyl)propyl)amino)isoindoline-1,3-dione]
> 1000 | – | 100 to 1000 | – | > 1000 | > 1000 | – | – | – | – | O=C1CCC(N2Cc3cc(NCCCCCC4(N5CCC(n6cc(-c7cnc8ccccc8n7)cn6)CC5)CC4)ccc3C2=O)C(=O)N1 (centres unmarked) [GS-126, 3-(1-Oxo-5-((5-(1-(4-(4-(quinoxalin-2-yl)-1H-pyrazol-1-yl)piperidin-1-yl)cyclopropyl)pentyl)amino)isoindolin-2-yl)piperidine-2,6-dione]
